{"source": "patent US11324706B2", "about": "“Composition for inhibiting growth of breast cancer stem cells containing phenylacetaldehyde” (JEJU NATIONAL UNIVERSITY INDUSTRY-ACADEMIC COOPERATION …, priority 2016, dated 2022)", "key": {"[1]": {"system": "MCF-7 cells", "assay": "Cell proliferation (MTS) analysis, MCF-7", "format": "cell-based, human", "conditions": "MCF-7, 48 hours after PAA treatment", "experimental": "(FIGS. 1A, B and C) show chemical structures of PAA and viability of MCF-7 and MDA-MB-231 cells depending on PAA. MCF-7 and MDA-MB-231 cells were treated with increasing concentrations of PAA for 48 hours. Anti-proliferation effects of PAA were measured by MTS analysis.\nProliferation rates of MCF-7 and MDA-MB-231 cells were measured using a CellTiter 96® aqueous one solution cell proliferation kit. MCF-7 and MDA-MB-231 cells were cultured in the presence of PAA (0.1, 0.2, 0.5, 1 and 2 mM) on a 96-well plate for 48 hours. In accordance with the manufacturer's protocol, absorbance at 490 nm was determined using a 96-well plate reader (Dynex Revelation, Dynex Ltd., Billingshurst, UK). All data was determined by measurement of three sets.\nIn order to investigate anti-proliferation effects of PAA in human breast cancer cell lines, i.e., MCF-7 and MDA-MB-231, the cancer cell lines were treated with different concentrations of PAA and then MTS analysis was conducted."}, "[2]": {"system": "MDA-MB-231 cells", "assay": "Clonogenicity assay (colony formation)", "format": "cell-based, human", "conditions": "MDA-MB-231, 7 days", "experimental": "The dissociated 1,000 MDA-MB-231 cells were seeded on a 6-well plate and treated with marked concentrations of PAA and DMSO for 7 days. A representative image of colonies was recorded. Shown data is represented as a mean±SD in three independent tests. * means P<0.05, as compared to DMSO-treated control group;\nMDA-MB-231 cells were seeded at a low density on a 6-well plate and treated with different concentrations of PAA in DMEM. After 24 hours, the medium was replaced with fresh medium and incubated for cell growth for 7 days. Grown colonies were counted."}, "[3]": {"system": "MCF-7 cells", "assay": "Xenograft tumor model", "format": "in vivo, NOD-SCID (BALB/cSIc (nu/nu)) female nude mice", "experimental": "FIGS. 3A, 3B and 3C show effects of PAA on tumor growth in xenograft tumor models. 3 million cells were injected into breast fat pads of NOD-SCID female nude mice;\nThe dose of used drug is 10 mg/kg. 9 weeks later, the image was captured with Odyssey® image (LICOR, Pearl image system, USA). Using an IRDye 800 CW optical probe (2DG), a high grade of tumor was used to detect breast tumors at a channel of 800 nm and was represented by pseudo-color;\nA tumor growth curve was monitored during the test period;\nTumor volume was measured after initiation of treatment. * means p<0.05, as compared to control group. A representative image was captured at the end of 9 weeks of treatment. Results are shown as a vehicle-treated control group, a PAA-treated mouse and a Dox-treated mouse;\n24 NOD-SCID (BALB/cSIc (nu/nu)) female nude mice in total were divided into four groups producing breast cancer cells. Six mice as a negative control group were not subjected to chemotherapy. However, the volumes of tumors of control group mice were measured every three days using the Equation of (width^2×length)/2 (FIG. 3). PAA was administered at the optimal dose of 10 to 50 mg/kg to six other nude mice via breast fat pad injection. In addition, doxorubicin (Dox) was administered daily in a low dose of 10 mg/kg to other six nude mice as a positive control group via breast fat pad injection. The last group was used as a non-tumor group without treatment."}, "[4]": {"system": "CD44high/CD24low cell populations of MDA-MB-231 cells", "assay": "Flow cytometric analysis of CD44 and CD24 expression", "format": "cell-based, human", "conditions": "MDA-MB-231, PAA 0.1 mM", "experimental": "For FACS analysis, 50,000 cells were obtained. Gating was based on control antibody;\nExpression of CD44 and CD24 in MDA-MB-231 cells was measured by FACS analysis. The cells were isolated and harvested using 1× trypsin/EDTA, and a million of cells were suspended, labelled with FITC-conjugated anti-human CD44 and PE-conjugated anti-human CD24 antibodies (BD Pharmingen, San Diego, Calif., USA) and cultured at 4° C. for 30 minutes. Then, the cells were washed with 1×PBS three times and analyzed by flow cytometry (Accuri C6, BD, San Diego, Calif., USA)."}, "[5]": {"system": "ALDH-positive cell populations of MDA-MB-231 cells", "assay": "ALDEFLUOR assay", "format": "cell-based, human", "conditions": "MDA-MB-231, PAA 0.1 mM", "experimental": "MDA-MB-231 cells were treated with PAA (0.1 mM) or DMSO, and then subjected to ALDEFLUOR assay and FACS analysis. A top panel represents, as a negative control group, an ALDH-positive cell treated with an ALDH inhibitor, DEAB, and a bottom panel represents an ALDH-positive cell not treated with DEAB. An ALDH-positive population was represented by a box;\nAn ALDEFLUOR assay system provides a novel approach regarding identification, evaluation and separation of CSCs based on activity of aldehyde dehydrogenase (ALDH). BODIPY-aminoacetaldehyde was added as an active reagent to breast cancer cells and converted into fluorescent BODIPY-aminoacetate by aldehyde dehydrogenase (ALDH). An ALDH inhibitor, i.e., diethylaminobenzaldehyde (DEAB), was used as a negative control group. MCF-7 cells were treated with 200 μM of PAA for 24 hours, and the rate of ALDH-positive cells was analyzed by ALDEFLUOR assay. ALDH positive and negative cells were classified by flow cytometry (Accuri C6, BD, San Diego, Calif., USA)."}, "[6]": {"system": "mammospheres", "assay": "Growth of mammospheres (cell counting)", "format": "cell-based", "experimental": "PAA inhibits growth of mammospheres. Mammospheres treated with PAA and DMSO for 2 days were separated into single cells and the equal number of cells were seeded on a 6 cm dish. 24 hours after seeding, the cells were counted. At 2- and 3-days, the cells were counted three times and plotted by the mean of the number. The data was represented by mean±standard deviation (SD). * means P<0.05, as compared to DMSO-treated control group;\nAccordingly, for PAA, the levels of ROSs in breast cancer stem cells were investigated. As a result, PAA induced ROS activity in MDA-MB-231 cells (FIG. 7B). Next, in order to identify whether or not PAA inhibits proliferation of mammospheres, the mammospheres were treated with PAA and the cell number of mammospheres was counted."}, "[7]": {"system": "secreted IL-6", "assay": "Western blot of secreted IL-6 in mammosphere culture solution", "format": "cell-based, human", "conditions": "culture solution of mammospheres", "text": "PAA reduces extracellular IL-6 protein levels in mammosphere culture;\nThe secreted IL-6 is known to play a key role in the formation of mammospheres (Sansone P, Storci G, Tavolari S, Guarnieri T, Giovannini C, Taffurelli M, Ceccarelli C, Santini D, Paterini P, Marcu K B, Chieco P and Bonafe M. IL-6 triggers malignant features in mammospheres from human ductal breast carcinoma and normal mammary gland. J Clin Invest. 2007; 117(12):3988-4002). Accordingly, in order to investigate the amount of produced secreted IL-6, western blot analysis was conducted in a culture solution of mammospheres using IL-6 antibodies. […] The internal control group was used to count mammospheres before and after treatment with PAA."}}, "data": [{"compound": "O=CCc1ccccc1", "note": "[PAA, phenylacetaldehyde]", "values": [{"measurement": "PAA concentration at which growth of the cell line was concentration-dependently inhibited", "setting": "[1]", "result": "≥ 200", "unit": "μm"}, {"measurement": "formation of colonies", "setting": "[2]", "result": "concentration-dependently inhibited"}, {"measurement": "tumor volume", "setting": "[3]; compared with Doxorubicin positive control group (10 mg/kg)", "result": "less than that of Doxorubicin"}, {"measurement": "tumor weight", "setting": "[3]; compared with control group not treated with PAA", "result": "less than control group"}, {"measurement": "tumor volume", "setting": "[3]; compared with control group not treated with PAA, breast fat pad injection", "result": "less than that of a control group"}, {"measurement": "subpopulation expressing CD44high/CD24low in breast cancer cells", "setting": "[4]", "result": "reduced"}, {"measurement": "proportion of ALDH-positive breast cancer cells", "setting": "[5]", "result": 0.1, "unit": "%"}, {"measurement": "apoptosis of mammospheres", "setting": "[6]", "result": "induced apoptosis"}, {"measurement": "proliferation of mammospheres", "setting": "[6]; cell number counted after PAA treatment", "result": "greatly reduces"}, {"measurement": "production level of secreted IL-6", "setting": "[7]", "result": "reduced"}]}]}
